Results as given in ChEMBL document CHEMBL6103537 (J Med Chem, 2025).

Columns and labels:
[1] = target: T1, Signal transducer and activator of transcription 6 (Homo sapiens, UniProt P42226); test: Binding affinity to N-terminal his6-tgged STAT6 (unknown origin) (113 to 658 residues) assessed as inhibition constant incubated for 1 hr by fluorescence polarization assay
T1 sequence (P42226 whole entry): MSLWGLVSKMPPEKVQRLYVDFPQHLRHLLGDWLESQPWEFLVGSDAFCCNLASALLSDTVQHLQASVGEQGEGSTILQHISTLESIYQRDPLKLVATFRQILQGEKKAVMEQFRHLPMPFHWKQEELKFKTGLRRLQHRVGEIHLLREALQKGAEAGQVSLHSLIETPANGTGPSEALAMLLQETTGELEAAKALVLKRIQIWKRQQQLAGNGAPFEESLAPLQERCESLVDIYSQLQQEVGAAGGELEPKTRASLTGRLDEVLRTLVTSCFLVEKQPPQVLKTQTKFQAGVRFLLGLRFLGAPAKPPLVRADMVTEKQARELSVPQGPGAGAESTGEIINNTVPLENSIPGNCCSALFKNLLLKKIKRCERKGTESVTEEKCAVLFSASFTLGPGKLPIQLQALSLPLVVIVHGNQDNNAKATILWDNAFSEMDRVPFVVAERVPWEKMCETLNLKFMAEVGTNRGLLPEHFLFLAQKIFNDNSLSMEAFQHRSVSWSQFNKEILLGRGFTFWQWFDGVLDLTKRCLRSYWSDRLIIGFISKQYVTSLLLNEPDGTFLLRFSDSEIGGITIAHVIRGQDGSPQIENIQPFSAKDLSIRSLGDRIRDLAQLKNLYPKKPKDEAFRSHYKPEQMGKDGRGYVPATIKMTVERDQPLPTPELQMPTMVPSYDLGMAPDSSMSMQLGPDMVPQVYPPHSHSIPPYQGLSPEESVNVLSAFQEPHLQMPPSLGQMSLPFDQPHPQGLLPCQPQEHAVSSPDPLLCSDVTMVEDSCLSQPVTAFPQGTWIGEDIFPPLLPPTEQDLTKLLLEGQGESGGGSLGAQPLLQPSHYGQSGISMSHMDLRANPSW

[2] = target: T2, Protein cereblon/Signal transducer and activator of transcription 6 (Homo sapiens, UniProt P42226+Q96SW2); test: PROTAC activity at STAT6/CRBN in human MV4-11 cells assessed as reduction in STAT6 level incubated for 12 hrs by Western blot analysis; format: cell-based
Target sequence in this assay (Q96SW2 whole entry, one chain of several): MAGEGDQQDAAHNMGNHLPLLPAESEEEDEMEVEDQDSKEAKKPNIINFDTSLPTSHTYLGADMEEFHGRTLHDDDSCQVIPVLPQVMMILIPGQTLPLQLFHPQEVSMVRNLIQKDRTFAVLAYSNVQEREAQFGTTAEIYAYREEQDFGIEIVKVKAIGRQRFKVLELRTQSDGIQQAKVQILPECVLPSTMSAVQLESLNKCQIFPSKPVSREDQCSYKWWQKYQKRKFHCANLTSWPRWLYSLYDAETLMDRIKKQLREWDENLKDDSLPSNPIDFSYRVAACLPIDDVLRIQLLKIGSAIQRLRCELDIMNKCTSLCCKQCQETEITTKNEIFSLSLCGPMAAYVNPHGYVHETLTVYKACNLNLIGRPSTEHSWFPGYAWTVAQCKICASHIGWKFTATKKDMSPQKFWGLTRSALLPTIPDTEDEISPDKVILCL

[3] = target: T2, Protein cereblon/Signal transducer and activator of transcription 6; test: PROTAC activity at STAT6/CRBN in human MV4-11 cells assessed as reduction in STAT6 level at 5 uM incubated for 12 hrs by Western blot analysis relative to control; format: cell-based
Target sequence in this assay (Q96SW2 whole entry partner, one chain of several): as the sequence (Q96SW2 whole entry, one chain of several) above

[4] = target: T3, Signal transducer and activator of transcription 5B (Homo sapiens, UniProt P51692); test: Binding affinity to STAT5B (unknown origin) assessed as inhibition constant incubated for 1 hr by fluorescence polarization assay
T3 sequence (P51692 whole entry): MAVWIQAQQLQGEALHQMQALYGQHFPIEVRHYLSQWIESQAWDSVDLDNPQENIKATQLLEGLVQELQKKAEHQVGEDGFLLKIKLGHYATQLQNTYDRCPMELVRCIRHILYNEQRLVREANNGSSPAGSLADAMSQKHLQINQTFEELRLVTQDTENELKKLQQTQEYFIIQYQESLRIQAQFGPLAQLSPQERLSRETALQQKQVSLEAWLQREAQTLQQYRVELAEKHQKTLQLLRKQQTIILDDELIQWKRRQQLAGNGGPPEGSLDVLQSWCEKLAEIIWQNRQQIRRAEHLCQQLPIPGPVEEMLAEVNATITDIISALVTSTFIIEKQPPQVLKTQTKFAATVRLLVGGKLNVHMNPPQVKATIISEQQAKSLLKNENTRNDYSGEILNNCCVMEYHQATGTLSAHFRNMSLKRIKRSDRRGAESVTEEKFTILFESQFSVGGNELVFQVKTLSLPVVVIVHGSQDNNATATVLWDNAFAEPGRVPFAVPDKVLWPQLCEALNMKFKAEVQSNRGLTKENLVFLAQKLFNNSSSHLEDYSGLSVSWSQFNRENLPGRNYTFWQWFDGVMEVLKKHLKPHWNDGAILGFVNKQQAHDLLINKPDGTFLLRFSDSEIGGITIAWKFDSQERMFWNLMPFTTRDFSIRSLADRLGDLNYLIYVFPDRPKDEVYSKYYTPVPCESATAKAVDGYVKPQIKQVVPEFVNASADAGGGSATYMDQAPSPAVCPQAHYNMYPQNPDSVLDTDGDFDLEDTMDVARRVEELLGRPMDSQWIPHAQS

SMILES	Ki [1] [nM]	also measured
CC(C)(C)[C@H](NC(=O)c1cc2cc(C(F)(F)P(=O)(O)O)ccc2s1)C(=O)N1Cc2ccccc2C[C@H]1C(=O)N1CCC[C@H](c2ccccc2)C1	190	
CC(C)(C)[C@H](NC(=O)c1cc2cc(C(F)(F)P(=O)(O)O)ccc2s1)C(=O)N1C[C@@H](NC(=O)CCCCCC#Cc2ccc3c(c2)CN(C2CCC(=O)NC2=O)C3=O)C[C@H]1C(=O)N1CCO[C@H](c2ccccc2)C1 (stereo not given in full)		DC50 [2]: 200 nM; Emax [3]: > 90%
CC(C)(C)[C@H](NC(=O)c1cc2cc(C(F)(F)P(=O)(O)O)ccc2s1)C(=O)N1C[C@@H](NC(=O)CCCCCCC#Cc2cccc3c2CN(C2CCC(=O)NC2=O)C3=O)C[C@H]1C(=O)N1CCO[C@H](c2ccccc2)C1 (stereo not given in full)		DC50 [2]: 250 nM; Emax [3]: > 95%
CC(C)(C)[C@H](NC(=O)c1cc2cc(C(F)(F)P(=O)(O)O)ccc2s1)C(=O)N1C[C@@H](NC(=O)CCCCCC#Cc2cccc3c2CN(C2CCC(=O)NC2=O)C3=O)C[C@H]1C(=O)N1CCO[C@H](c2ccccc2)C1 (stereo not given in full)		DC50 [2]: 60 nM; Emax [3]: > 95%
CC(C)(C)[C@H](NC(=O)c1cc2cc(C(F)(F)P(=O)(O)O)ccc2s1)C(=O)N1Cc2ccccc2[C@H]1C(=O)N1CCC[C@H](c2ccccc2)C1	42	
CC(C)(C)[C@H](NC(=O)c1cc2cc(C(F)(F)P(=O)(O)O)ccc2s1)C(=O)N1C[C@@H](NC(=O)CCCCC#Cc2cccc3c2CN(C2CCC(=O)NC2=O)C3=O)C[C@H]1C(=O)N1CCO[C@H](c2ccccc2)C1 (stereo not given in full)		DC50 [2]: 120 nM; Emax [3]: > 95%
CC(C)(C)[C@H](NC(=O)c1cc2cc(C(F)(F)P(=O)(O)O)ccc2s1)C(=O)N1CCC[C@H]1C(=O)N1Cc2ccccc2C1		Ki [4]: > 5000 nM
CC(C)(C)[C@H](NC(=O)c1cc2cc(C(F)(F)P(=O)(O)O)ccc2s1)C(=O)N1C[C@@H](OCCCCC#Cc2cccc3c2CN(C2CCC(=O)NC2=O)C3=O)C[C@H]1C(=O)N1CCO[C@H](c2ccccc2)C1 (stereo not given in full)		DC50 [2]: 50 nM; Emax [3]: > 95%
O=C(N[C@H](C(=O)N1CCC[C@H]1C(=O)N1CCO[C@H](c2ccccc2)C1)C1CC1)c1cc2cc(C(F)(F)P(=O)(O)O)ccc2s1	120	
O=C(N[C@@H](CC1CCNCC1)C(=O)N1CCC[C@H]1C(=O)N1CCO[C@H](c2ccccc2)C1)c1cc2cc(C(F)(F)P(=O)(O)O)ccc2s1	180	
CC(C)(C)c1ccc(C[C@H](NC(=O)c2cc3cc(C(F)(F)P(=O)(O)O)ccc3s2)C(=O)N2CCC[C@H]2C(=O)N2CCO[C@H](c3ccccc3)C2)cc1	160	
CC(C)(C)[C@H](NC(=O)c1cc2cc(C(F)(F)P(=O)(O)O)ccc2s1)C(=O)N1C[C@@H](NC(=O)CCCC#Cc2cccc3c2CN(C2CCC(=O)NC2=O)C3=O)C[C@H]1C(=O)N1CCO[C@H](c2ccccc2)C1 (stereo not given in full)		DC50 [2]: 260 nM; Emax [3]: > 95%
CC(C)(C)[C@H](NC(=O)c1cc2cc(C(F)(F)P(=O)(O)O)ccc2s1)C(=O)N1C[C@@H](OCCCCCCNc2cccc3c2CN(C2CCC(=O)NC2=O)C3=O)C[C@H]1C(=O)N1CCO[C@H](c2ccccc2)C1 (stereo not given in full)		DC50 [2]: 60 nM; Emax [3]: > 95%
O=C(N[C@@H](Cc1ccc2ccccc2c1)C(=O)N1CCC[C@H]1C(=O)N1CCO[C@H](c2ccccc2)C1)c1cc2cc(C(F)(F)P(=O)(O)O)ccc2s1	250	
O=C(N[C@@H](Cc1ccncc1)C(=O)N1CCC[C@H]1C(=O)N1CCO[C@H](c2ccccc2)C1)c1cc2cc(C(F)(F)P(=O)(O)O)ccc2s1	450	
CC[C@H](NC(=O)c1cc2cc(C(F)(F)P(=O)(O)O)ccc2s1)C(=O)N1CCC[C@H]1C(=O)N1CCO[C@H](c2ccccc2)C1	160	
CC(C)(C)[C@H](NC(=O)c1cc2cc(C(F)(F)P(=O)(O)O)ccc2s1)C(=O)N1CCCC[C@H]1C(=O)N1CCO[C@H](c2ccccc2)C1	110	
CC(C)(C)[C@H](NC(=O)c1cc2cc(C(F)(F)P(=O)(O)O)ccc2s1)C(=O)N1C[C@@H](OCCCCCCCC#Cc2cccc3c2CN(C2CCC(=O)NC2=O)C3=O)C[C@H]1C(=O)N1CCO[C@H](c2ccccc2)C1 (stereo not given in full)		DC50 [2]: 60 nM; Emax [3]: > 95%
CC(C)(C)[C@H](NC(=O)c1cc2cc(C(F)(F)P(=O)(O)O)ccc2s1)C(=O)N1C[C@@H](OCCCCCCC#Cc2cccc3c2CN(C2CCC(=O)NC2=O)C3=O)C[C@H]1C(=O)N1CCO[C@H](c2ccccc2)C1 (stereo not given in full)		DC50 [2]: 20 nM; Emax [3]: > 95%
CC(=O)N[C@H]1C[C@@H](C(=O)N2CCO[C@H](c3ccccc3)C2)N(C(=O)[C@@H](NC(=O)c2cc3cc(C(F)(F)P(=O)(O)O)ccc3s2)C(C)(C)C)C1		Ki [4]: 590 nM
CC(C)(C)[C@H](NC(=O)c1cc2cc(C(F)(F)P(=O)(O)O)ccc2s1)C(=O)N1C[C@H](OCCCCCC#Cc2cccc3c2CN(C2CCC(=O)NC2=O)C3=O)C[C@H]1C(=O)N1CCO[C@H](c2ccccc2)C1 (stereo not given in full)		DC50 [2]: 130 nM; Emax [3]: > 95%
O=C(N[C@@H](Cc1ccccc1)C(=O)N1CCC[C@H]1C(=O)N1CCO[C@H](c2ccccc2)C1)c1cc2cc(C(F)(F)P(=O)(O)O)ccc2s1	340	
CC(C)(C)[C@H](NC(=O)c1cc2cc(C(F)(F)P(=O)(O)O)ccc2s1)C(=O)N1Cc2ccccc2[C@H]1C(=O)N1CCO[C@H](c2ccccc2)C1	33	
C/C(=C\C(=O)N[C@H](C(=O)N1CCC[C@H]1C(=O)N1CCc2ccccc2C1)C(C)(C)C)c1ccc(C(F)(F)P(=O)(O)O)cc1	3500	

Now from value to molecule, other results behind:

Ki [1] [nM]	SMILES	also measured
210	COc1ccc(C[C@H](NC(=O)c2cc3cc(C(F)(F)P(=O)(O)O)ccc3s2)C(=O)N2CCC[C@H]2C(=O)N2CCO[C@H](c3ccccc3)C2)cc1	
120	CC(C)(C)[C@H](NC(=O)c1cc2cc(C(F)(F)P(=O)(O)O)ccc2s1)C(=O)N1CCCCC[C@H]1C(=O)N1CCO[C@H](c2ccccc2)C1	
260	O=C(N[C@H](C(=O)N1CCC[C@H]1C(=O)N1CCO[C@H](c2ccccc2)C1)C1CCNCC1)c1cc2cc(C(F)(F)P(=O)(O)O)ccc2s1	
170	O=C(N[C@@H](Cc1ccc(Br)cc1)C(=O)N1CCC[C@H]1C(=O)N1CCO[C@H](c2ccccc2)C1)c1cc2cc(C(F)(F)P(=O)(O)O)ccc2s1	
250	CN1CCC(C[C@H](NC(=O)c2cc3cc(C(F)(F)P(=O)(O)O)ccc3s2)C(=O)N2CCC[C@H]2C(=O)N2CCO[C@H](c3ccccc3)C2)CC1	
200	CC(C)(C)[C@H](NC(=O)c1cc2cc(C(F)(F)P(=O)(O)O)ccc2s1)C(=O)N1CCCCC[C@H]1C(=O)N1CCC[C@H](c2ccccc2)C1	
160	CC(C)(C)[C@H](NC(=O)c1cc2cc(C(F)(F)P(=O)(O)O)ccc2s1)C(=O)N1CCCC[C@H]1C(=O)N1CCC[C@H](c2ccccc2)C1	
90	O=C(N[C@H](C(=O)N1CCC[C@H]1C(=O)N1CCO[C@H](c2ccccc2)C1)C1CCCCC1)c1cc2cc(C(F)(F)P(=O)(O)O)ccc2s1	
6	CO[C@H]1C[C@@H](C(=O)N2CCO[C@H](c3ccccc3)C2)N(C(=O)[C@@H](NC(=O)c2cc3cc(C(F)(F)P(=O)(O)O)ccc3s2)C(C)(C)C)C1	
83	CC(C)(C)[C@H](NC(=O)c1cc2cc(C(F)(F)P(=O)(O)O)ccc2s1)C(=O)N1Cc2ccccc2C[C@H]1C(=O)N1CCO[C@H](c2ccccc2)C1	
120	CC(C)(O)[C@H](NC(=O)c1cc2cc(C(F)(F)P(=O)(O)O)ccc2s1)C(=O)N1CCC[C@H]1C(=O)N1CCO[C@H](c2ccccc2)C1	
